One may read the IC50 as the concentration that gives 50% inhibition. Low values mean higher potency, high ones lower potency.

Consider 23 molecules from patent US10294236B2, “Compounds as rearranged during transfection (RET) inhibitors” (GLAXOSMITHKLINE INTELLECTUAL PROPERTY DEVELOPMENT LIMITED, priority 2014, dated 2019).

Molecules are shown by their SMILES. Counter-ions that a name gives are not always drawn.

In this assay the target is T1, Human RET kinase cytoplasmic domain (Homo sapiens, UniProt P07949).
T1 construct: made in house
T1 sequence (P07949 658-1114): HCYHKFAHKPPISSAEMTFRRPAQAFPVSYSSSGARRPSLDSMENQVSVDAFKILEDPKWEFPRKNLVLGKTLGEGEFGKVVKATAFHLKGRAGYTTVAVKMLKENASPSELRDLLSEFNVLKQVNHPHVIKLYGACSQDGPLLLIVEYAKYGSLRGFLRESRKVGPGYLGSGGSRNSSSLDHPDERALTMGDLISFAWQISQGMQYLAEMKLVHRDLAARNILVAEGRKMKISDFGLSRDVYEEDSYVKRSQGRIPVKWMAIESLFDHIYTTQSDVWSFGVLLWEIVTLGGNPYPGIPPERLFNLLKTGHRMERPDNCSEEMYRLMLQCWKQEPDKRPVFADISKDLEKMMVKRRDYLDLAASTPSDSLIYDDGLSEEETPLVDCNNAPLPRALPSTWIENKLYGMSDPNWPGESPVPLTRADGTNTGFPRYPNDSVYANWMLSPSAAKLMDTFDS
The experiment in a line: RET kinase enzymatic assay. The class given is biochemical. In outline: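 GST-RET, 0.2 nM in 2× enzyme mix (HEPES, CHAPS, BSA, DTT), preincubated with inhibitor 30 min at 23 °C. Reaction for 1 h at 23 °C after adding 2× substrate mix: 20 μM ATP, 20 mM MgCl2, 1 μM biotinylated peptide. Single wells per concentration; IC50 from sigmoidal dose-response fit.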
The molecule `CCOc1cc(-c2ncc(NC(=O)Nc3cc(C(F)(F)F)c(CN(C)C)cc3F)cn2)c[nH]c1=O` [Example 188, 1-(4-((Dimethylamino)methyl)-2-fluoro-5-(trifluoromethyl)phenyl)-3-(2-(5-ethoxy-6-oxo-1,6-dihydropyridin-3-yl)pyrimidin-5-yl)urea dihydrochloride] returned an IC50 of under 100 nM.

With `CCOc1cc(-c2ncc(NC(=O)Nc3ccc(CCN4CCCC4)c(C(F)(F)F)c3)c(C)n2)c[nH]c1=O` [Example 177, 1-(2-(5-Ethoxy-6-oxo-1,6-dihydropyridin-3-yl)-4-methylpyrimidin-5-yl)-3-(4-(2-(pyrrolidin-1-yl)ethyl)-3-(trifluoromethyl)phenyl)urea], the IC50 was under 100 nM.

For the molecule `CC1(Oc2ccc(NC(=O)Nc3ccc(-c4c[nH]c(=O)c5occc45)cc3F)cc2C(F)(F)F)COC1` [Example 1, 1-(2-Fluoro-4-(7-oxo-6,7-dihydrofuro[2,3-c]pyridin-4-yl)phenyl)-3-(4-((3-methyloxetan-3-yl)oxy)-3-(trifluoromethyl)phenyl)urea], the IC50 was under 100 nM.

Molecule `CCOc1cc(-c2cnc(NC(=O)Nc3ccc(CC(C)(C)CO)c(C(F)(F)F)c3)c(C)n2)c[nH]c1=O` [Example 41, 1-(5-(5-Ethoxy-6-oxo-1,6-dihydropyridin-3-yl)-3-methylpyrazin-2-yl)-3-(4-(3-hydroxy-2,2-dimethylpropyl)-3-(trifluoromethyl)phenyl)urea] returned an IC50 of under 100 nM.

In the case of `CCOc1cc(-c2ccc(NC(=O)Nc3ccc(C(C)(C)C#N)c(C(F)(F)F)c3)c(F)c2)c[nH]c1=O` [Example 135], the IC50 was under 100 nM.

`CCOc1cc(-c2ccc(NC(=O)Nc3ccc(CN4CCN(CC)CC4)c(C(F)(F)F)c3)c(C(F)F)c2)c[nH]c1=O` [Example 30, 1-(2-(Difluoromethyl)-4-(5-ethoxy-6-oxo-1,6-dihydropyridin-3-yl)phenyl)-3-(4-((4-ethylpiperazin-1-yl)methyl)-3-(trifluoromethyl)phenyl)urea] had an IC50 of under 100 nM.

Turning to `CCOc1cc(-c2ncc(NC(=O)Nc3cccc(C(F)(F)F)c3)c(C)n2)c[nH]c1=O` [Example 42, 1-(2-(5-Ethoxy-6-oxo-1,6-dihydropyridin-3-yl)-4-methylpyrimidin-5-yl)-3-(3-(trifluoromethyl)phenyl)urea], the IC50 is under 100 nM.

Molecule `CCOc1cc(-c2ncc(NC(=O)Nc3cc(OCCN4CCOCC4)cc(C(F)(F)F)c3)c(C)n2)c[nH]c1=O` [Example 99] had an IC50 of under 100 nM.

Regarding `CCOc1cc(=O)[nH]cc1-c1ncc(NC(=O)Nc2ccc(CC(C)(C)CO)c(C(F)(F)F)c2)c(C)n1` [Example 47, 1-(2-(4-Ethoxy-6-oxo-1,6-dihydropyridin-3-yl)-4-methylpyrimidin-5-yl)-3-(4-(3-hydroxy-2,2-dimethylpropyl)-3-(trifluoromethyl)phenyl)urea], the IC50 was under 100 nM.

For `CCOc1cc(-c2ncc(NC(=O)Nc3ccc(CC4(C)COC4)c(C(F)(F)F)c3)c(C)n2)c[nH]c1=O` [Example 13, 1-(2-(5-Ethoxy-6-oxo-1,6-dihydropyridin-3-yl)-4-methylpyrimidin-5-yl)-3-(4-((3-methyloxetan-3-yl)methyl)-3-(trifluoromethyl)phenyl)urea], the IC50 is under 100 nM.

Take `CCOc1cc(Oc2ccc(NC(=O)Nc3ccc(CN4CCN(CC)CC4)c(C(F)(F)F)c3)cc2)c[nH]c1=O` [Example 31, 1-(4-((5-Ethoxy-6-oxo-1,6-dihydropyridin-3-yl)oxy)phenyl)-3-(4-((4-ethylpiperazin-1-yl)methyl)-3-(trifluoromethyl)phenyl)urea]: the IC50 is under 100 nM.

`CCOc1cc(-c2ncc(NC(=O)Nc3cnc(C(C)(C)O)c(C(F)(F)F)c3)c(C)n2)c[nH]c1=O` [Example 29, 1-(2-(5-Ethoxy-6-oxo-1,6-dihydropyridin-3-yl)-4-methylpyrimidin-5-yl)-3-(6-(2-hydroxypropan-2-yl)-5-(trifluoromethyl)pyridin-3-yl)urea] gave an IC50 of under 100 nM.

As to `CCOc1cc(-c2ccc(NC(=O)Nc3ccc(OC(C)C)c(C(F)(F)F)c3)nc2C)c[nH]c1=O` [Example 8, 1-(5′-Ethoxy-2-methyl-6′-oxo-1′,6′-dihydro-[3,3′-bipyridin]-6-yl)-3-(4-isopropoxy-3-(trifluoromethyl)phenyl)urea], the IC50 was under 100 nM.

The molecule `CCOc1cc(=O)[nH]cc1-c1ncc(NC(=O)Nc2ccc(C(C)C#N)c(C(F)(F)F)c2)c(C)n1` (centres unmarked) [Example 24, 1-(4-(1-Cyanoethyl)-3-(trifluoromethyl)phenyl)-3-(2-(4-ethoxy-6-oxo-1,6-dihydropyridin-3-yl)-4-methylpyrimidin-5-yl)urea] yielded an IC50 of under 100 nM.

`CCOc1cc(-c2ncc(NC(=O)Nc3ccc(OC4(C)COC4)c(C(F)(F)F)c3)c(C)n2)c[nH]c1=O` [Example 96] gave an IC50 of under 100 nM.

For `CCOc1[nH]c(=O)ccc1-c1ccc(NC(=O)Nc2ccc(OC3(C)COC3)c(C(F)(F)F)c2)c(F)c1` [Example 35, 1-(4-(2-Ethoxy-6-oxo-1,6-dihydropyridin-3-yl)-2-fluorophenyl)-3-(4-((3-methyloxetan-3-yl)oxy)-3-(trifluoromethyl)phenyl)urea], the IC50 was under 100 nM.

For the molecule `CCOc1cc(-c2ccc(NC(=O)Nc3cc(-n4cnc(C)c4)cc(C(F)(F)F)c3)c(F)c2)c[nH]c1=O` [Example 2, 1-(4-(5-Ethoxy-6-oxo-1,6-dihydropyridin-3-yl)-2-fluorophenyl)-3-(3-(4-methyl-1H-imidazol-1-yl)-5-(trifluoromethyl)phenyl)urea], the IC50 is under 100 nM.

`CCOc1cc(-c2ncc(NC(=O)Nc3ccc(C(C)(C)CN(C)C)c(C(F)(F)F)c3)c(C)n2)c[nH]c1=O` [Example 73, 1-(4-(1-(Dimethylamino)-2-methylpropan-2-yl)-3-(trifluoromethyl)phenyl)-3-(2-(5-ethoxy-6-oxo-1,6-dihydropyridin-3-yl)-4-methylpyrimidin-5-yl)urea dihydrochloride] showed an IC50 of under 100 nM.

Turning to `CCOc1cc(=O)[nH]cc1-c1ncc(NC(=O)Nc2cc(C(C)(C)C(F)(F)F)on2)c(C)n1` [Example 46, 1-(2-(4-Ethoxy-6-oxo-1,6-dihydropyridin-3-yl)-4-methylpyrimidin-5-yl)-3-(5-(1,1,1-trifluoro-2-methylpropan-2-yl)isoxazol-3-yl)urea], the IC50 was under 100 nM.

Molecule `CCOc1cc(-c2ccc(NC(=O)Nc3ccc(OC(C)C)c(C(F)(F)F)c3)c(C)n2)c[nH]c1=O` [Example 5, 1-(5′-Ethoxy-6-methyl-6′-oxo-1′,6′-dihydro-[2,3′-bipyridin]-5-yl)-3-(4-isopropoxy-3-(trifluoromethyl)phenyl)urea] came in with an IC50 of under 100 nM.

As to `CCOc1cc(-c2ncc(NC(=O)Nc3ccc(CN(C)C)c(C(F)(F)F)c3)cn2)c[nH]c1=O` [Example 179, 1-(4-((Dimethylamino)methyl)-3-(trifluoromethyl)phenyl)-3-(2-(5-ethoxy-6-oxo-1,6-dihydropyridin-3-yl)pyrimidin-5-yl)urea], the IC50 is under 100 nM.

`CCOc1cc(-c2ncc(NC(=O)Nc3ccc(C4(CO)CC4)c(C(F)(F)F)c3)c(C)n2)c[nH]c1=O` [Example 66, 1-(2-(5-Ethoxy-6-oxo-1,6-dihydropyridin-3-yl)-4-methylpyrimidin-5-yl)-3-(4-(1-(hydroxymethyl)cyclopropyl)-3-(trifluoromethyl)phenyl)urea hydrochloride] gave an IC50 of under 100 nM.

Consider `CCOc1cc(F)c(C(F)(F)F)cc1NC(=O)Nc1ccc(-c2c[nH]c(=O)c(OCC)c2)cc1F` [Example 153], for which the 50% inhibitory concentration (IC50) was under 100 nM.
